In patent US12441730B2, “PRMT5 inhibitors” (Merck Sharp & Dohme LLC, priority 2019, dated 2025):
Like-named read-outs stand apart in the source and are kept apart here.

Tests used:
[1] = target: T1, Full-length (FL)-PRMT5-MEP50 enzyme complex (Homo sapiens, UniProt O14744); assay: PRMT5-MEP50 Enzyme Methylation Assay (Version A); format: biochemical
T1 construct: Full-length (FL)-PRMT5-MEP50 enzyme complex (recombinant proteins from baculovirus-transfected Sf21 cells: FL-PRMT5; MW=73837 kDa and FL-MEP50; MW=38614); made in house; host or cells: baculovirus-transfected Sf21 cells
T1 sequence (O14744 whole entry): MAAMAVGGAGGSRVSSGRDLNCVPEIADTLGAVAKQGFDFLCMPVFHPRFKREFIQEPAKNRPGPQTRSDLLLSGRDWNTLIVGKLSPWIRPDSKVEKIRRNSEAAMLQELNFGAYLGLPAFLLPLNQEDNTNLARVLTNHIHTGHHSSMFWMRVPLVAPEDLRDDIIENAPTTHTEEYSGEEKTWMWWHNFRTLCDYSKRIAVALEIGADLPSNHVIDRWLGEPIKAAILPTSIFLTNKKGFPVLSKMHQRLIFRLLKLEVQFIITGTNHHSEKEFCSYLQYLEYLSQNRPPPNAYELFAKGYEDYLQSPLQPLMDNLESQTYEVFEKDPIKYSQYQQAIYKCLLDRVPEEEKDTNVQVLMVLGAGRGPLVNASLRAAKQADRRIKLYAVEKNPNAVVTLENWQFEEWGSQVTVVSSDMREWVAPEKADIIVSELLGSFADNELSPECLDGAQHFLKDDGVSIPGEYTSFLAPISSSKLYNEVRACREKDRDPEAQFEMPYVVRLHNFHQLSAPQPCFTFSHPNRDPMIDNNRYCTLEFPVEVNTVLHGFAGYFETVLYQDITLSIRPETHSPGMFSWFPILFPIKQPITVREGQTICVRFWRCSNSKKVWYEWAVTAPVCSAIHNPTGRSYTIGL
T1 sequence (Q9BQA1 whole entry partner): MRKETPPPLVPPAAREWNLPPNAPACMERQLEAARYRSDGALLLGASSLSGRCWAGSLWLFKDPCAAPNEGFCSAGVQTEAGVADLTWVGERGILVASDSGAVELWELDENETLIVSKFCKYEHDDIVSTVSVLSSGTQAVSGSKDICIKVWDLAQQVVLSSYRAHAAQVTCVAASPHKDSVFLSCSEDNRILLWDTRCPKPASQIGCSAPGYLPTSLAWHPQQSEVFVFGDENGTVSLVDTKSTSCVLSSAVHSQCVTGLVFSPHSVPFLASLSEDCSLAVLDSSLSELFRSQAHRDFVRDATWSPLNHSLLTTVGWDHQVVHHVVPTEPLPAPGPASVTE
Description: PRMT5-MEP50 Enzyme Methylation Assay (Version A)
PRMT5-MEP50 biochemical assay is a direct measurement of the methylation activity of the enzyme complex on a short peptide substrate derived from the N-terminus of H4 histone. Methylation experiment was performed with recombinant PRMT5-MEP50 protein complex. The assessment of inhibitory effect of small molecules was measured by the effectiveness of the compounds to inhibit this reaction (EC50).
In this assay, the potency (EC50) of each compound was determined from a twenty-point (1:2 serial dilution; top compound concentration of 100000 nM) titration curve using the following outlined procedure. To each well of a white ProxiPlus 384 well-plate, 100 nL of compound (1% DMSO in final assay volume of 10 μL) was dispensed, followed by the addition of 8 μL of 1× assay buffer (50 mM Bicine pH 8.0, 1 mM DTT, 0.004% Tween20, 0.01% BSA) containing 1.25 nM of Full-length (FL)-PRMT5-MEP50 enzyme complex (recombinant proteins from baculovirus-transfected Sf21 cells: FL-PRMT5; MW=[…] and FL-MEP50; MW=38614) and 1 μL of 150 μM S-(5′-Adenosyl)-L-Methionine Chloride (SAM). A plate were sealed and placed in a 37° C. humidified chamber for a 60 minutes pre-incubation with compound. Subsequently, each reaction was initiated by the addition of 1 μL 1× assay buffer containing 750 nM biotinylated H4R3(Me1) peptide. The final reaction in each well of 10 μL consists of 1.0 nM PRMT5-MEP50, 75 nM biotinylated-peptide, and 15 μM SAM. Methylation reactions were allowed to proceed for 150 minutes in a sealed plate at 37° C. Reactions were immediately quenched by the addition of 1 μL of 5% formic acid. A plate was then frozen and shipped to SAMDI™ Tech Inc. to determine the percent conversion from H4R3(Me1) to H4R3(Me2). Dose-response curves were generated by plotting percent effect (% product conversion; Y-axis) vs. Log 10 compound concentrations (X-axis). EC50 values were determined by non-linear regression according to models for either sigmoidal (4 parameters) or biphasic (7 parameters) dose-response curves.

[2] = test system: symmetric dimethylation of arginine (SDMA) of PRMT5 substrates in MCF-7 cells; assay: PRMT5 Cell Target Engagement (TE) Assay; format: cell-based; conditions: 3 days treatment, SDMA high content imaging
Description: PRMT5 Cell Target Engagement (TE) Assay
The PRMT5 TE assay is a biomarker assay for identifying compounds that inhibit symmetric dimethylation of arginine (SDMA) of PRMT5 substrates. The following substrates have been reported for PRMT5: histone H2A and H4 R3, Histone H3 R2, Histone H3 R8, spliceosome Sm proteins, ribosomal protein RPS10, p53, FEN1, nucleoplasmin, nucleolin, EGFR and EBNA. The assay focuses on detecting symmetrically dimethylated nuclear proteins using high content imaging technology. Detection of the expression of symmetrically dimethylated nuclear proteins is through a mixture of primary rabbit monoclonal antibodies to SDMA (CST 13222), which in turn recognized by an Alexafluor 488 dye-conjugated anti-rabbit IgG secondary antibody. The IN Cell Analyzer 2200 or Opera-Phenix measures nuclear Alexafluor 488 fluorescent dye intensity that is directly related to the level of expression of symmetrically dimethylated nuclear proteins at the single cell level. Nuclear AF488 dye intensities are compared to the mean value for DMSO treated cells (MIN) to report percent of inhibition for each compound-treated well.
In this assay, the cell potency (EC50) of each compound was determined from a ten point (1:3 serial dilution; top compound concentration of 10000 nM) titration curve using the following outlined procedure. Each well of a BD falcon collagen coated black/clear bottom 384-well plate was seeded with 4000 MCF-7 cells in 30 μl media and allowed to attach for 5 h. Media is ATCC-formulated Eagle's Minimum Essential Medium, Catalog No. 30-2003. To make the complete growth medium, the following components were added to the base medium: 0.01 mg/mL human recombinant insulin; fetal bovine serum to a final concentration of 10%. Additional 30 μl of media containing 2× compounds were added to each well. Cells were treated for 3 days in 37° C. CO2 incubator. On day 3, cells were fixed with Cytofix, permeabilized with 0.4% Triton-X-100/Cytofix, and washed with D-PBS without Ca/Mg. Cells were blocked with Licor Odessey blocking reagent for 1 h at room temperature, followed by incubation with anti-SDMA (1:1000) antibody at 4° C. overnight. 1° antibody was removed, followed by three washings with DPBS without Ca/Mg and 0.05% Tween20. Hoechst (5 μg/mL), Cell Mask deep stain (1:2000) and Alexa488-conjugated goat anti-rabbit IgG (2 μg/mL) was added for 1 h at room temperature. A final washing step (three washes) was performed before sealing plate for imaging on In Cell Analyzer 2200 or Opera-Phenix. Images from analyzer were uploaded to Columbus (at WP or BOS) for image analysis. IC50 values were determined by 4 parameters robust fit of percent fluorescence units vs. (Log10) compound concentrations.

[3] = second value of 7 parameter biphasic fit, read-out: Enzyme Methylation Assay Version A (EC50 2)
[4] = single EC50 = 4 parameter single site sigmoidal fit, EC50 1 = first value of 7 parameter biphasic fit, read-out: Enzyme Methylation Assay Version A (EC50 or EC50 1)

| SMILES | EC50 [1, 3] [nM] | EC50 [1, 4] [nM] | EC50 [2] [nM] | EC50 ([2]; Homo sapiens, MCF7, 72 h) [nM] |
| --- | --- | --- | --- | --- |
| COC(C)c1ccc2nc(C(=O)N3CC[C@]4(Cc5ccccc5CN4)[C@H](O)C3)cn2c1 (single isomer, unassigned) [Example 22, ((3R,3’R)-3′-hydroxy-1,4-dihydro-2H-spiro[isoquinoline-3,4′-piperidin]-1′-yl)(6-((S or R)-1-methoxyethyl)imidazo[1,2-a]pyridin-2-yl)methanone] | 439 | 0.674 | 16.8 |  |
| COC(C)c1ccc2nc(C(=O)N3CC[C@]4(Cc5ccccc5CN4)[C@H](O)C3)cn2c1 (single isomer, unassigned) [Example 23, ((3R,3’R)-3′-hydroxy-1,4-dihydro-2H-spiro[isoquinoline-3,4′-piperidin]-1-yl)(6-((R or S)-1-methoxyethyl)imidazo[1,2-a]pyridin-2-yl)methanone] | 851 | 1.8 | 46.4 |  |
| O=C(c1cn2cc(Br)cc(C(O)C(F)(F)F)c2n1)N1CC[C@]2(Cc3ccccc3CN2)[C@H](O)C1 (single isomer, unassigned) [Example 30, (6-bromo-8-((R or S)-2,2,2-trifluoro-1-hydroxyethyl)imidazo[1,2-a]pyridin-2-yl)((3R,3’R)-3′-hydroxy-1,4-dihydro-2H-spiro[isoquinoline-3,4′-piperidin]-1′-yl)methanone] | 99.4 | 0.584 |  | 3.62 |
| CC(O)c1cc(Br)cn2cc(C(=O)N3CC[C@]4(Cc5ccccc5CN4)[C@H](O)C3)nc12 (single isomer, unassigned) [Example 32, (6-bromo-8-((R or S)-1-hydroxyethyl)imidazo[1,2-a]pyridin-2-yl)((3R,3’R)-3′-hydroxy-1,4-dihydro-2H-spiro[isoquinoline-3,4′-piperidin]-1′-yl)methanone] | 282 | 0.844 |  | 5.15 |
| COC(C)c1cc(Br)c2nc(C(=O)N3CC[C@]4(Cc5ccccc5CN4)[C@H](O)C3)cn2c1 (single isomer, unassigned) [Example 60] | 271 | 0.456 | 7.49 |  |
| COC(C)c1cc(Br)c2nc(C(=O)N3CC[C@]4(Cc5ccccc5CN4)[C@H](O)C3)cn2c1 (single isomer, unassigned) [Example 61] | 422 | 0.669 | 16.9 |  |
| CC1CC1c1cnc2nc(C(=O)N3CC[C@]4(Cc5ccccc5CN4)[C@H](O)C3)cn2c1 (single isomer, unassigned) [Example 74] |  | 13.9 | 8.37 |  |
| CC1CC1c1cnc2nc(C(=O)N3CC[C@]4(Cc5ccccc5CN4)[C@H](O)C3)cn2c1 (single isomer, unassigned) [Example 76] | 73.3 | 0.983 | 4.02 |  |
| COC(C)c1cc(C(F)F)cn2cc(C(=O)N3CC[C@]4(Cc5ccccc5CN4)[C@H](O)C3)nc12 (single isomer, unassigned) [Example 81] |  | 3.81 | 25 |  |
| N#CC1(c2cnc3nc(C(=O)N4CC[C@]5(Cc6ccccc6CN5)[C@H](O)C4)cn3c2)CC12CC2 (single isomer, unassigned) [Example 82] |  | 0.746 | 7.75 |  |
| N#CC1(c2cnc3nc(C(=O)N4CC[C@]5(Cc6ccccc6CN5)[C@H](O)C4)cn3c2)CC12CC2 (single isomer, unassigned) [Example 83] | 3160 | 3.28 | 90.8 |  |
| CN1CCC(Oc2nc(Br)cn3cc(C(=O)N4CC[C@]5(Cc6ccccc6CN5)[C@H](O)C4)nc23)C1=O (single isomer, unassigned) [Example 94, (R or S)-3-((6-bromo-2-((3R,3′R)-3′-hydroxy-1,4-dihydro-2H-spiro[isoquinoline-3,4′-piperidine]-1′-carbonyl)imidazo[1,2-a]pyrazin-8-yl)oxy)-1-methylpyrrolidin-2-one] | 316 | 0.826 |  | 19.7 |

Now from value to compound:

| EC50 [1, 3] [nM] | EC50 [1, 4] [nM] | EC50 [2] [nM] | EC50 ([2]; Homo sapiens, MCF7, 72 h) [nM] | SMILES |
| --- | --- | --- | --- | --- |
| 72.4 | 0.215 | 4.49 |  | O=C(c1cn2cc(Br)cc(C(O)C(F)(F)F)c2n1)N1CC[C@]2(Cc3ccccc3CN2)[C@H](O)C1 (single isomer, unassigned) [Example 31, (6-bromo-8-((S or R)-2,2,2-trifluoro-1-hydroxyethyl)imidazo[1,2-a]pyridin-2-yl)((3R,3’R)-3′-hydroxy-1,4-dihydro-2H-spiro[isoquinoline-3,4′-piperidin]-1′-yl)methanone] |
| 215 | 0.565 | 3.71 |  | CC(O)c1cc(Br)cn2cc(C(=O)N3CC[C@]4(Cc5ccccc5CN4)[C@H](O)C3)nc12 (single isomer, unassigned) [Example 33, (6-bromo-8-((S or R)-1-hydroxyethyl)imidazo[1,2-a]pyridin-2-yl)((3R,3’R)-3′-hydroxy-1,4-dihydro-2H-spiro[isoquinoline-3,4′-piperidin]-1′-yl)methanone] |
| 112 | 1.66 |  | 27.5 | O=C(c1cn2cc(C3CC3(F)F)cnc2n1)N1CC[C@]2(Cc3ccccc3CN2)[C@H](O)C1 (single isomer, unassigned) [Example 75] |
| 108 | 1.46 | 23.8 |  | O=C(c1cn2cc(C3CC3(F)F)cnc2n1)N1CC[C@]2(Cc3ccccc3CN2)[C@H](O)C1 (single isomer, unassigned) [Example 77] |
|  | 1.25 | 8.38 |  | COC(C)c1cc(C(F)F)cn2cc(C(=O)N3CC[C@]4(Cc5ccccc5CN4)[C@H](O)C3)nc12 (single isomer, unassigned) [Example 80] |
| 468 | 1.01 | 28.7 |  | CN1CCC(Oc2nc(Br)cn3cc(C(=O)N4CC[C@]5(Cc6ccccc6CN5)[C@H](O)C4)nc23)C1=O (single isomer, unassigned) [Example 95, (R or S)-3-((6-bromo-2-((3R,3′R)-3′-hydroxy-1,4-dihydro-2H-spiro[isoquinoline-3,4′-piperidine]-1′-carbonyl)imidazo[1,2-a]pyrazin-8-yl)oxy)-1-methylpyrrolidin-2-one] |
| 104 | 0.191 |  | 6.86 | O=C(c1cn2cc(Br)nc(OC3CCOC3)c2n1)N1CC[C@]2(Cc3ccccc3CN2)[C@H](O)C1 (single isomer, unassigned) [Example 98, (6-bromo-8-(((S or R)(tetrahydrofuran-3-yl)oxy)imidazo[1,2-a]pyrazin-2-yl)((3R,3′R)-3′-hydroxy-1,4-dihydro-2H-spiro[isoquinoline-3,4′-piperidin]-1′-yl)methanone] |
